Source: US7932271B2, “Heterocyclic methyl sulfone derivative” (Daiichi Pharmaceutical Co., Ltd., priority 2003, dated 2011)

What was measured:
[1] = test system: β amyloid protein (Aβ) secreted by E35 cells (human glioma H4 cells transfected with APP751 gene); test: Inhibition of production or secretion of β-amyloid protein (Aβ) in E35 cells, sandwich ELISA of the supernatant; type: cell-based; settings: 24 hours with test compound, compared to DMSO control cells, read-out: Activity (IC50, concentration at which 50% inhibition of Aβ production was observed)
Description: The inhibitory activity against formation of β amyloid protein of the compounds obtained in Examples was tested in the method described bellow.
E35 cells were established by transfecting APP751 gene which is a wild type human β-amyloid protein precursor into human glioma cells (H4 cells).
E35 cells were seeded in 96-well plates and cultured in an incubator of 37° C. by using a Dulbecco's Modified Eagle's Medium containing 10% inactivated fetal bovine serum (10% FBS-DMEM). Twenty-four hours after seeding, a test compound dissolved in DMSO so as to give its concentration to be 2000 times as much as that of the final concentration was added to the medium in an amount of 1/2000 capacity of the culture medium. The cells were cultured for additional twenty-four hours, and then the supernatant was collected. The amount of β amyloid protein (Aβ) secreted in the supernatant was measured by the sandwich enzyme-linked immunosorbent assay (ELISA). Described specifically, a monoclonal antibody 25-1, which recognized Aβ25-35, was immobilized onto a 96-well ELISA plate, followed by the incubation at 4° C. for 16 to 20 hours. After washing with a phosphate buffer (pH 7.4) (PBS), a biotinylated monoclonal antibody MA32-40, which recognized Aβ1-8, was added, and the plate was kept at 4° C. for 2 hours. After the supernatant was removed and the well was washed sufficiently with PBS, alkaline phosphatase-conjugated streptavidin was added to the plate. Absorbance was measured while adding BlouPhos (manufactured by KPL) as a substrate. An amount of Aβ contained in the supernatant was calculated using a calibration curve separately created using Aβ of a known concentration. IC50 of the test compound was presented as the concentration at which 50% inhibition of Aβ production was observed compared to the amount of Aβ of the control cells to which only DMSO was added.
When there is at least 10-times difference between the IC50 and the concentration at which cytotoxicity appears, then the compound is judged as a compound having an inhibitory activity against production or secretion of β amyloid protein.

IC50 [1]: < 5 nM | melting point: 215 to 218 °C
SMILES: CN1CCN(S(=O)(=O)Nc2cc(C(c3cc(F)ccc3F)S(=O)(=O)c3ccc(Cl)cc3)c(Cl)cn2)CC1 (centres unmarked) [Example 271]
